Data reported in US5759768A, “Assays for factors affecting circularization of DNA, assays for factors affecting DNA integration, factors, and uses thereof” (priority 1995, dated 1998).
Like-named read-outs stand apart in the source and are kept apart here.

Tests used:
[1] = system: linear viral DNA (circularization); assay type: biochemical, HIV-1
Protocol: (§1) The chronically HIV-1 infected Molt IIIB human T cell line (HTLV IIIB virus strain) was the source of virus for cell-free infections. This human T cell line constitutively produces a low level of the HTLV-111B strain of HIV-1. Culture supernatant containing a high concentration of virus was prepared by incubating 300×10^6 Molt IIIB cells in 50 ml fresh RPMI 1640 medium containing 20% fetal calf serum and 10 ng of phorbol 12-myristate 13-acetate per ml for 20-24 hours. […] Cytoplasmic extracts (3 ml) were prepared 4-4.5 hours post-infection, by a modification of the procedure of Brown et al., Cell 49: 342-356 (1987).
(§2) At specified times after infection, cells were washed twice with buffer K (20 mM Hepes, pH 7.4, 150 mM KCl, 5 mM MgCl2, 1 mM dithiothreitol, […]) and then lysed at a concentration of 33×10^6 cells per ml in the same buffer containing 0.025% digitonin or 0.025% Triton X-100. Cells were extracted for 10 minutes at room temperature, and the lysate was centrifuged at 1000×g for 3 minutes, and is referred to as "cytoplasmic extract". Cytoplasmic extract was the source of viral DNA for analyses in the assays described below. The pellet from the initial low-speed centrifugation contained cell debris and intact nuclei and is called the "nuclear pellet". Cell extracts from uninfected SupT1 cells were prepared in the same manner.
Viral DNA present in cytoplasmic extracts was deproteinated by incubation with proteinase K (1 mg/ml)/10 mM EDTA/0.5% SDS for 1 hour at 55° C. Samples were extracted successively with phenol/chloroform [1:1 (vol/vol)] and chloroform. DNA was ethanol-precipitated, washed with 70% ethanol, resuspended in 10 mM Tris.HCI (pH 7.4), and treated with RNase A (20 μpg/ml)for 1 hour at […]. before analysis by agarose gel electrophoresis and Southern blotting.
(§3) DNA samples were layered on 0.8% agarose gels and electrophoresed at 1 V/cm for 15 hour in Tris/acetate/EDTA buffer. After electrophoresis, DNA was blotted by capillary action onto nitrocellulose (0.45 μm, Schleicher & Schuell).
Cell extracts were prepared from cells four to five hours after infection with HIV-1, using the above-described methods to yield fully functional viral preintegration complexes. […] In all cases, a HIV-1 LTR-containing DNA fragment was used as a hybridization probe. Therefore, only LTR-containing DNA fragments are detected. […] Lane 5: Unintegrated viral DNA prepared by Hirt extraction of SupT1 cells infected 24 hours earlier with concentrated HIV-1. […] Viral DNA was purified from extracts incubated with 1 mM ATP for 15 minutes (lanes 1 and 4), with 1 mM ATP for 45 minutes (lanes 3 and 6), or with 1 mM ATPγS for 45 minutes (lanes 2 and 5). Lanes 1-3: uncut viral DNA; lanes 4-6: viral DNA was cut with SalI prior to electrophorosis. Lane 7: linear viral DNA, prepared from untreated extracts was digested with SalI prior to electrophorosis. Lane 8: unintegrated viral DNA prepared by Hirt extraction of infected cells, as described with respect to FIG. 14, digested with SalI prior to electrophoresis. […] Lanes 1-3. Viral DNA prepared from extracts treated with 1 mM ATP for 15 minutes, 30 minutes and 45 minutes, respectively. Lane 4: Viral DNA prepared from extract treated with 1 mM ATPγS for 45 minutes. Lanes 5-7: products of reactions shown in lanes 1-3, respectively, digested with SalI and PstI prior to electrophoresis. Lane 8: SalI, PstI digestion of viral DNA prepared from extract treated with 1 mM ATP for 90 minutes. Lane 9: SalI, PstI digestion of reaction products shown in lane 4. Lane 10: SalI, PstI digestion of unintegrated viral DNA prepared by Hirt extraction of infected cells.

[2] = system: viral DNA integrated into .phi.X174 target DNA; assay type: biochemical, HIV-1; details: for Relative activity, % of standard: target DNA 10 μg/ml
Protocol: as §1, §2, §3
In Vitro Integration Reaction
Pst I-linearized (replicative form III) .phi.X174 DNA, relaxed circular (replicative form II) .phi.X174 DNA, and single-stranded M13 DNA were used as targets for the in vitro integration of viral DNA. Target DNA was added to cytoplasmic extracts of intected SupT1 cells to a concentration of 10 μg/ml, and reaction mixtures were incubated at […]. Reactions, were stopped by the addition of SDS and proteinase K.
Cytoplasmic extracts prepared from SupT1 cells 4 hours after infection with HIV-1 were incubated with exogenously added target DNA under integration reaction conditions. Products of the reactions were analyzed by Southern blot hybridization. The time course of integration into linear .phi.X174 DNA target was determined. Target DNA was added to the extract and the reaction was stopped after 0,5,15,30, or 45 minutes of incubation at 37° C. (FIG. 11, lanes a-e, respectively). Purified linear viral DNA was incubated for 1 hour at 37° C. with cytoplasmic extract prepared from uninfected SupT1 cells (lane f). […] Arrows in the Figure indicate the positions of viral DNA products. L, linear viral DNA:I, integration product. Integration was detected by the shift of linear viral DNA on Southern blots from the characteristic 9.7-kilobase (kb) position to a position corresponding to viral DNA plus target DNA.

Row | Structure (SMILES) | detectable circle formation [1] | detectable integration in vitro ([2]; 1 mM EDTA, buffer devoid of added MgCl2) | Relative activity, % of standard ([2]; -Mg2+/+EDTA) | KCl concentration of most efficient formation of 1-LTR circles ([1]; 1 mM ATP, 37° C., 90 min) [mM] | circular forms at KCl concentration ([1]; 100 mM KCl, 1 mM ATP, 90 min) | circular forms at higher salt concentrations ([1]; higher KCl concentrations (lane 6: 250 mM), 1 mM ATP, 90 min) | 1-LTR [KCl] optimum ([1]; table) [mM] | Autointegration [KCl] optimum ([1]; table) [mM] | Relative activity, % of standard ([2]; KCl 100 mM) | detectable integration in vitro ([2]; KCl 250 mM or greater) | Relative activity, % of standard ([2]; KCl 250 mM)
1 | O=C(O)CN(CCN(CC(=O)O)CC(=O)O)CC(=O)O [EDTA] | abolished detectable circle formation | absence of detectable integration | 0 % of standard | – | – | – | – | – | – | – | –
2 | [Cl-].[K+] [KCl] | – | – | – | 125 | 1-LTR circles were formed almost exclusively | most entirely of the 2-LTR form | 125 | 150 to 175 | 85 % of standard | completely abolished detectable integration | 0 % of standard
